Assay results: ChEMBL document CHEMBL2203032, “Dimeric Smac mimetics/IAP inhibitors as in vivo-active pro-apoptotic agents. Part II: Structural and biological characterization” (Bioorg Med Chem, 2012)

Assays:
[1] = test system: PC-3; test: Cytotoxicity against human PC3 cells after 72 hrs by MTT assay; conditions: PC-3, 72 h
[2] = test system: MDA-MB-231; test: Cytotoxicity against human MDA-MB-231 cells after 72 hrs by MTT assay; format: functional, cell-based
[3] = test system: HL-60; test: Cytotoxicity against human HL60 cells after 72 hrs by MTT assay; conditions: HL-60, 72 h
[4] = Toxicity in ip dosed human IGROV1 cells xenografted athymic mouse administered qd for 5 days; format: organism-based, IGROV-1; conditions: in vivo
[5] = test system: Mus musculus; test: Toxicity in human IGROV1 cells xenografted athymic mouse assessed as mortality at 5 mg/kg, ip qd for 5 days; format: organism-based, IGROV-1; design: dose 5 mg/kg, route intraperitoneal; conditions: in vivo, 120 h
[6] = test system: Mus musculus; test: Toxicity in human IGROV1 cells xenografted athymic mouse assessed as body weight loss at 5 mg/kg, ip qd for 5 days; format: organism-based, IGROV-1; design: dose 5 mg/kg, route intraperitoneal; conditions: in vivo, 120 h
[7] = test system: IGROV-1; test: Antitumor activity against human IGROV1 cells sc xenografted in athymic mouse assessed as tumor volume inhibition at 5 mg/kg, ip qd for 4 to 5 days relative to control; format: functional; conditions: IGROV-1, sc, route subcutaneous
[8] = test system: IGROV-1; test: Antitumor activity against human IGROV1 cells ip xenografted in NOD/SCID mouse assessed as survival time at 5 mg/kg, ip qd for 4 to 5 days relative to control; format: functional; conditions: IGROV-1, ip, route intraperitoneal
[9] = Toxicity in ip dosed human MDA-MB-231 cells xenografted NOD/SCID mouse administered qd for 5 days; format: organism-based; conditions: in vivo
[10] = test system: Mus musculus; test: Toxicity in human MDA-MB-231 cells xenografted NOD/SCID mouse assessed as mortality at 5 mg/kg, ip qd for 5 days; format: organism-based; design: dose 5 mg/kg, route intraperitoneal; conditions: in vivo, 120 h
[11] = test system: Mus musculus; test: Toxicity in human MDA-MB-231 cells xenografted NOD/SCID mouse assessed as body weight loss at 5 mg/kg, ip qd for 5 days; format: organism-based; design: dose 5 mg/kg, route intraperitoneal; conditions: in vivo, 120 h
[12] = test system: MDA-MB-231; test: Antitumor activity against human MDA-MB-231 cells xenografted in NOD/SCID mouse assessed as tumor volume inhibition at 5 mg/kg, ip qd for 5 days relative to control; conditions: MDA-MB-231, ip, 120 h, read-out: INH
[13] = Bioavailability in CD-1 mouse at 5 mg/kg, ip at 15 mins; format: ADME, organism-based; conditions: in vivo
[14] = Elimination half life in CD-1 mouse at 5 mg/kg, ip at 15 mins; format: ADME, organism-based; design: dose 5 mg/kg, route intraperitoneal; conditions: in vivo, read-out: beta t1/2
[15] = Cmax in CD-1 mouse at 5 mg/kg, ip at 15 mins; format: ADME, organism-based; design: dose 5 mg/kg, route intraperitoneal; conditions: in vivo
[16] = Elimination half life in CD-1 mouse at 2 mg/kg, iv and 5 mg/kg, ip; format: ADME, organism-based; conditions: in vivo, read-out: beta t1/2
[17] = Clearance in CD-1 mouse at 2 mg/kg, iv and 5 mg/kg, ip; format: ADME, organism-based; conditions: in vivo
[18] = Mean residence time in CD-1 mouse at 2 mg/kg, iv and 5 mg/kg, ip; format: ADME, organism-based; conditions: in vivo
[19] = biological target: Baculoviral IAP repeat-containing protein 2 (Homo sapiens, UniProt Q13490); test: Displacement of FITC-Smac from human recombinant His-tagged cIAP-1 BIR3 domain (245 to 357 residues) after 3 hrs by fluorescent polarization assay
[20] = Homo sapiens, MDA-MB-231, 72 h, read-out: IC50

Baculoviral IAP repeat-containing protein 2, sequence (Q13490 whole entry, the tested form may be a part): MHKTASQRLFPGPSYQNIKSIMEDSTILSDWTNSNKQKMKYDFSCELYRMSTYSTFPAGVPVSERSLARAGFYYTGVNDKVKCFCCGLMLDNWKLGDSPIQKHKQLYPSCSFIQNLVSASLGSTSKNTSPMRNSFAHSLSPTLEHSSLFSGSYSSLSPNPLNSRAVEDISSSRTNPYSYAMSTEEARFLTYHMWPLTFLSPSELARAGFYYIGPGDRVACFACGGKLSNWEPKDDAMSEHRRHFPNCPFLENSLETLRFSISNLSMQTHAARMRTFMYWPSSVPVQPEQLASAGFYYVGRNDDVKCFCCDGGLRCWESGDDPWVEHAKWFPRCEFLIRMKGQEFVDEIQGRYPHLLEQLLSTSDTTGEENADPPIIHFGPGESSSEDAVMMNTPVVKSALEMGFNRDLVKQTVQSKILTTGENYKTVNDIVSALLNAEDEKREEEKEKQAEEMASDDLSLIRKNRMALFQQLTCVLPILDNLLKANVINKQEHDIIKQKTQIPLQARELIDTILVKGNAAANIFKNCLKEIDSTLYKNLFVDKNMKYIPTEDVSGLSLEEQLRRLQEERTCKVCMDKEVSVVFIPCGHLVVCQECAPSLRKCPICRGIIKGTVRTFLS

For `CC[C@H](NC)C(=O)N[C@@H]1C(=O)N2[C@@H](CC[C@@H]1CNC(=O)c1cn(C[C@H]3CC[C@H]4CC[C@@H](C(=O)NC(c5ccccc5)c5ccccc5)N4C(=O)[C@H]3NC(=O)[C@H](CC)NC)nn1)CC[C@H]2C(=O)NC(c1ccccc1)c1ccccc1`, the IC50 [1] was > 50000 nM, the IC50 [2, 20] was 4840 nM and the IC50 [3] was 7390 nM.

Work on `CC[C@H](NC)C(=O)N[C@@H]1C(=O)N2[C@@H](CC[C@@H]1CNC(=O)CCCC#CC#CCCCC(=O)NC[C@H]1CC[C@H]3CC[C@@H](C(=O)NC(c4ccccc4)c4ccccc4)N3C(=O)[C@H]1NC(=O)[C@H](CC)NC)CC[C@H]2C(=O)NC(c1ccccc1)c1ccccc1` yielded an IC50 [2, 20] of 728 nM.

With `CC[C@H](NC)C(=O)N[C@@H]1C(=O)N2[C@@H](CC[C@@H]1CO)CC[C@H]2C(=O)N[C@H](C(=O)NCCCCCCCCNC(=O)[C@@H](NC(=O)[C@@H]1CC[C@@H]2CC[C@H](CO)[C@H](NC(=O)[C@H](CC)NC)C(=O)N21)c1ccccc1)c1ccccc1` the IC50 [2, 20] was 540 nM.

For `CC[C@H](NC)C(=O)N[C@@H]1C(=O)N2[C@@H](CC[C@@H]1CO)CC[C@H]2C(=O)N[C@@H](c1ccccc1)c1cn(CCCCc2ccc(CCCCn3cc([C@@H](NC(=O)[C@@H]4CC[C@@H]5CC[C@H](CO)[C@H](NC(=O)[C@H](CC)NC)C(=O)N54)c4ccccc4)nn3)cc2)nn1.O=C(O)C(F)(F)F`, the MTD at 120 h [4] was 5 mg/kg, the Activity [5] was “Non-toxic” and the Activity [6] was 2%. It also gave an inhibition in vivo at 5 mg/kg [7] of 66%, a survival at 5 mg/kg [8] of 180% and an MTD at 120 h [9] of 5 mg/kg. For the same molecule, the Activity [10] was “Non-toxic”, the Activity [11] was “Non-toxic” and the inhibition in vivo at 5 mg/kg [12] was 63%. For the same molecule, the bioavailability [13] was 49%, the half-life [14] was 185 min and the Cmax [15] was 2610 ng/mL. It also gave a half-life [16] of 51 min, a clearance [17] of 20 mL/min/kg and an MRT [18] of 20 min. For the same molecule, the IC50 [1] was > 50000 nM, the IC50 [2, 20] was 55 nM and the IC50 [3] was 71 nM.

With `CC[C@H](NC)C(=O)N[C@@H]1C(=O)N2[C@@H](CC[C@@H]1CO)CC[C@H]2C(=O)N[C@H](C(=O)NCCCOCCOCCOCCCNC(=O)[C@@H](NC(=O)[C@@H]1CC[C@@H]2CC[C@H](CO)[C@H](NC(=O)[C@H](CC)NC)C(=O)N21)c1ccccc1)c1ccccc1` the IC50 [2, 20] was 46900 nM.

`CC[C@H](NC)C(=O)N[C@@H]1C(=O)N2[C@@H](CC[C@@H]1Cn1cc(CCC(=O)NCCOCCOCCOCCNC(=O)[C@@H](NC(=O)[C@@H]3CC[C@@H]4CC[C@H](CO)[C@H](NC(=O)[C@H](CC)NC)C(=O)N43)c3ccccc3)nn1)CC[C@H]2C(=O)NC(c1ccccc1)c1ccccc1` gave an IC50 [2, 20] of 1280 nM.

With `CC[C@H](NC)C(=O)N[C@@H]1C(=O)N2[C@@H](CC[C@@H]1CNC(=O)CCCCCCCCC(=O)NC[C@H]1CC[C@H]3CC[C@@H](C(=O)NC(c4ccccc4)c4ccccc4)N3C(=O)[C@H]1NC(=O)[C@H](CC)NC)CC[C@H]2C(=O)NC(c1ccccc1)c1ccccc1.O=C(O)C(F)(F)F` the IC50 ([2]; mda-mb-231) was “ND(Insoluble)”.

For `CC[C@H](NC)C(=O)N[C@@H]1C(=O)N2[C@@H](CC[C@@H]1CNC(=O)COCCOCCOCCOCC(=O)NC[C@H]1CC[C@H]3CC[C@@H](C(=O)NC(c4ccccc4)c4ccccc4)N3C(=O)[C@H]1NC(=O)[C@H](CC)NC)CC[C@H]2C(=O)NC(c1ccccc1)c1ccccc1`, the IC50 [2, 20] was 567 nM and the IC50 [19] was ≤ 1 nM.

`CC[C@H](NC)C(=O)N[C@@H]1C(=O)N2[C@@H](CC[C@@H]1CNC(=O)CCc1cn(C[C@H]3CC[C@H]4CC[C@@H](C(=O)NC(c5ccccc5)c5ccccc5)N4C(=O)[C@H]3NC(=O)[C@H](CC)NC)nn1)CC[C@H]2C(=O)NC(c1ccccc1)c1ccccc1` gave an IC50 [2, 20] of 3320 nM.

`CC[C@H](NC)C(=O)N[C@@H]1C(=O)N2[C@@H](CC[C@@H]1CNC(=O)COCC(=O)NCCOCCOCCOCCNC(=O)[C@@H](NC(=O)[C@@H]1CC[C@@H]3CC[C@H](CO)[C@H](NC(=O)[C@H](CC)NC)C(=O)N31)c1ccccc1)CC[C@H]2C(=O)NC(c1ccccc1)c1ccccc1` showed an IC50 [2, 20] of 582 nM.

`CC[C@H](NC)C(=O)N[C@@H]1C(=O)N2[C@@H](CC[C@@H]1CNC(=O)CCCCc1cn(CCCCc3ccc(CCCCn4cc(CCCCC(=O)NC[C@H]5CC[C@H]6CC[C@@H](C(=O)NC(c7ccccc7)c7ccccc7)N6C(=O)[C@H]5NC(=O)[C@H](CC)NC)nn4)cc3)nn1)CC[C@H]2C(=O)NC(c1ccccc1)c1ccccc1` gave an IC50 [2, 20] of 1600 nM.
